What follows are compounds tested on PBMCs infected with VSV-G pseudotyped HIV virus (VSV-G/pNLGI-P2A-ΔEnv) (assay: cells). Conditions: Homo sapiens, PBMC, read-out: TACK EC50 (nM).
Format: cell-based

Point of comparison: `O=C1Nc2cc(Cn3cccn3)c(F)cc2[C@@](C#CC2CC2)(C(F)(F)F)O1` (single isomer, unassigned) [Example 29A], EC50 428 nM. Against it:
- O=C1Nc2cc(Cn3cnc(C(F)F)cc3=O)c(F)cc2[C@@](C#CC2CC2)(C(F)(F)F)O1 (single isomer, unassigned) [Example 7A] — 9.5-fold lower, 45 nM
- CC(F)(F)[C@@]1(C#CC2CC2)OC(=O)Nc2cc(Cn3ccnc(N)c3=O)ccc21 [Example 8, (S)-7-((3-amino-2-oxopyrazin-1(2H)-yl)methyl)-4-(cyclopropylethynyl)-4-(1,1-difluoroethyl)-1,4-dihydro-2H-benzo[d][1,3]oxazin-2-one] — 14-fold lower, 30 nM
- CC(F)(F)[C@@]1(C#CC2CC2)OC(=O)Nc2cc(Cn3cnccc3=O)ccc21 [Example 9, (S)-4-(cyclopropylethynyl)-4-(1,1-difluoroethyl)-7-((6-oxopyrimidin-1(6H)-yl)methyl)-1,4-dihydro-2H-benzo[d][1,3]oxazin-2-one] — 4.8-fold lower, 90 nM
- CC(F)(F)[C@@]1(C#CC2CC2)OC(=O)Nc2cc(Cn3cnccc3=O)c(Cl)cc21 [Example 26, (S)-6-chloro-4-(cyclopropylethynyl)-4-(1,1-difluoroethyl)-7-((6-oxopyrimidin-1(6H)-yl)methyl)-1,4-dihydro-2H-benzo[d][1,3]oxazin-2-one] — 27-fold lower, 16 nM
- O=C1Nc2cc(Cn3cnccc3=O)c(Cl)cc2[C@@](C#CC2CC2)(C(F)(F)F)O1 [Example 15, (S)-6-chloro-4-(cyclopropylethynyl)-7-((6-oxopyrimidin-1(6H)-yl)methyl)-4-(trifluoromethyl)-1,4-dihydro-2H-benzo[d][1,3]oxazin-2-one] — 6.8-fold lower, 63 nM
- NS(=O)(=O)c1ccc(Cc2ccc3c(c2)NC(=O)O[C@]3(C#CC2CC2)C(F)(F)F)cc1 (single isomer, unassigned) [Example 30A] — 1.8-fold higher, 755 nM

— patent US20240409531A1, “BENZOXAZINONE DERIVATIVES AS SELECTIVE CYTOTOXIC AGENTS” (Merck Sharp & Dohme LLC, priority 2021, published 2024)
